The source of these data is paper PMC7793009 (ACS infectious diseases, 2020).

Data set [1] relates to tBHQ-induced ARE activity. In words: cells. The settings on record: read-out: ARE/GFP/tBHQ IC50. It counts as cell-based.
In data set [2] the test system is p62-induced ARE activity. Briefly: cells. The settings on record: read-out: ARE/p62 IC50. The class given is cell-based.
In data set [3] the test system is ARE activity induced by over-expression of Nrf2. Briefly: cells. It counts as cell-based. The settings on record: for IC50: read-out: ARE/Nrf2 IC50.
The target of data set [4] is constitutively expressed firefly luciferase (ce-FF) (Photinus pyralis, UniProt P08659). Briefly: cell-based. The class given is cell-based.
Data set [5] concerns NF-κB. Briefly: cells. It counts as cell-based. To be noted: read-out: NF-κB IC50.
Data set [6] concerns HEK293T cells. To be noted: 24 h, ATP content (CellTiter-Glo). For orientation: ATP-based viability assays read luminescence as a measure of living cells.
The test system of data set [7] is endogenous Nrf2. The class given is cell-based.
Data set [8] has as its system mVP24-induced ARE activity. Briefly: siRNA. The class given is cell-based. To be noted: two p53 siRNAs vs scramble, mVP24/ARE HEK293T, 24 h treatment.
The test system of data set [9] is mVP24-induced ARE activity. Briefly: ARE/mVP24 firefly luciferase reporter assay. The class given is cell-based. The settings on record: plateau around 1 μM of compound.
The subject of data set [10] is Flag-tagged mVP24. The class given is cell-based, Marburg virus.
Data set [11] is described as follows: in vitro. The settings on record: human.

Where two headings read alike, the source gives them in different places.

Chain of constitutively expressed firefly luciferase (ce-FF) (P08659 whole entry): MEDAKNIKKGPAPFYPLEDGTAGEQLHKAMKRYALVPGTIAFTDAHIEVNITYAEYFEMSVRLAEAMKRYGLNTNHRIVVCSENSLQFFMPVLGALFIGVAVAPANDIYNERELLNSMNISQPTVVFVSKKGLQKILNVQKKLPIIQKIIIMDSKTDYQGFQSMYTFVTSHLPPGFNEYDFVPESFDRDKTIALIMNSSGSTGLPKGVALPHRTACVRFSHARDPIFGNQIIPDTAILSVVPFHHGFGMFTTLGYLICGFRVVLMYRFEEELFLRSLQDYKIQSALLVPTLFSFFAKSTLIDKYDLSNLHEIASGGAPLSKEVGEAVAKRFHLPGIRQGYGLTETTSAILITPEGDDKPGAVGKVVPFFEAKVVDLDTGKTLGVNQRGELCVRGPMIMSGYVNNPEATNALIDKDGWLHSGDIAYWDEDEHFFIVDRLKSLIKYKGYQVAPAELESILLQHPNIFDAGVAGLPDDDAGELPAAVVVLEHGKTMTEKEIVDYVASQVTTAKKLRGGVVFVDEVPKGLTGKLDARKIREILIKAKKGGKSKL

Take `Nc1ncnc2c1c(I)cn2[C@@H]1O[C@H](CO)[C@@H](O)[C@H]1O` [5-iodotubercidin]: the IC50 in data set [1] was determined as 0.2 µM; in [2] it was 0.058 µM; in data set [3] it was 1.2 µM; in data set [4] (read-out: Ce-FF IC50) it was 15 µM; in data set [5], 6.5 µM. Besides, the CC50 in [6] was greater than 50 µM.
As to `O=C(N[C@@H]1CCCc2c1[nH]c1ccc(Cl)cc21)c1ccccn1` [GSK983], in data set [7], the “Nrf2 expression relative to DMSO control” value is recorded as “decreased”. Moreover, the “effect of p53 knockdown on inhibition of mVP24-induced ARE activity” value in data set [8] is on record as “did not result in a reversal of inhibition”.
Consider `COc1cc([C@@H]2c3cc4c(cc3[C@H](O)[C@H]3COC(=O)[C@H]23)OCO4)cc(OC)c1OC` [Podophyllotoxin, podophyllotoxin], for which, in data set [9], the “plateau of inhibitory activity against mVP24-induced ARE activity” value is “approximately 80%”. Also, the IC50 in data set [1] (Homo sapiens, HEK-293T, 24 h) was 0.026 µM; in data set [2] (Homo sapiens, HEK-293T, 24 h), 3.1 µM; in data set [3] (Homo sapiens, HEK-293T, 24 h), greater than 50 µM; in data set [4] it was greater than 50 µM; in data set [5] (Homo sapiens, HEK-293T, 6 h), greater than 50 µM. In data set [3] (ARE/Nrf2 assay), the “inhibition of ARE activity following over-expression of Nrf2 (in words)” value is “did not inhibit”. Besides, in data set [10], the “mVP24 expression relative to DMSO control” value was “affected”. Also, in [7] (ARE/mVP24 HEK293T cells, 1 and 5 μM, 24 h, western blot), the “Nrf2 expression relative to DMSO control” value was “affected”. In data set [11], this molecule yielded a CC50 at 24 h greater than 50 µM.
